Experimental data: patent US7625841B2, “Substituted thiene-3-ylsulphonylamino(thio)carbonyltriazolin(ethi)ones” (Bayer CropScience AG, priority 2001, dated 2009)

Assays:
Format in all cases: in vivo
[1] = tested on: Alopecurus; assay: Pre-emergence test/greenhouse; details: greenhouse, application rate 15 gai/ha, rated after three weeks, 0%=no effect, 100%=total destruction
Procedure, shortened: (§1)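 Read-out is percent damage relative to untreated controls three weeks after treatment, where 0% means no effect and 100% total destruction. Treatment was a spray onto soil one day after seeds were sown, applied in 1000 litres of water per hectare.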

[2] = tested on: Polygonum; assay: Pre-emergence test/greenhouse; details: greenhouse, application rate 15 gai/ha, rated after three weeks, 0%=no effect, 100%=total destruction
Procedure, shortened: as §1

[3] = tested on: soybeans; assay: Pre-emergence test/greenhouse; details: greenhouse, application rate 15 gai/ha, rated after three weeks, 0%=no effect, 100%=total destruction
Procedure, shortened: as §1

[4] = tested on: Digitaria; assay: Pre-emergence test/greenhouse; details: greenhouse, application rate 15 gai/ha, rated after three weeks, 0%=no effect, 100%=total destruction
Procedure, shortened: as §1

[5] = tested on: Setaria; assay: Pre-emergence test/greenhouse; details: greenhouse, application rate 15 gai/ha, rated after three weeks, 0%=no effect, 100%=total destruction
Procedure, shortened: as §1

[6] = tested on: Lolium; assay: Pre-emergence test/greenhouse; details: Lolium, 504 h, greenhouse, application rate 15 gai/ha, rated after three weeks, 0%=no effect, 100%=total destruction, read-out: degree of damage to the plants, Lolium
Procedure, shortened: as §1

[7] = tested on: Solanum; assay: Pre-emergence test/greenhouse; details: greenhouse, application rate 15 gai/ha, rated after three weeks, 0%=no effect, 100%=total destruction
Procedure, shortened: as §1

[8] = tested on: Avena fatua; assay: Pre-emergence test/greenhouse; details: greenhouse, application rate 15 gai/ha, rated after three weeks, 0%=no effect, 100%=total destruction
Procedure, shortened: as §1

[9] = tested on: Chenopodium; assay: Pre-emergence test/greenhouse; details: greenhouse, application rate 15 gai/ha, rated after three weeks, 0%=no effect, 100%=total destruction
Procedure, shortened: as §1

[10] = tested on: wheat; assay: Pre-emergence test/greenhouse; details: Triticum aestivum, 504 h, greenhouse, application rate 15 gai/ha, rated after three weeks, 0%=no effect, 100%=total destruction, read-out: degree of damage to the plants, wheat
Procedure, shortened: as §1

[11] = tested on: Galium; assay: Pre-emergence test/greenhouse; details: greenhouse, application rate 15 gai/ha, rated after three weeks, 0%=no effect, 100%=total destruction
Procedure, shortened: as §1

[12] = tested on: Stellaria; assay: Pre-emergence test/greenhouse; details: Stellaria, 504 h, greenhouse, application rate 15 gai/ha, rated after three weeks, 0%=no effect, 100%=total destruction, read-out: degree of damage to the plants, Stellaria
Procedure, shortened: as §1

[13] = tested on: Xanthium; assay: Pre-emergence test/greenhouse; details: Xanthium, 504 h, greenhouse, application rate 15 gai/ha, rated after three weeks, 0%=no effect, 100%=total destruction, read-out: degree of damage to the plants, Xanthium
Procedure, shortened: as §1

[14] = tested on: Matricaria; assay: Pre-emergence test/greenhouse; details: Matricaria, 504 h, greenhouse, application rate 15 gai/ha, rated after three weeks, 0%=no effect, 100%=total destruction, read-out: degree of damage to the plants, Matricaria
Procedure, shortened: as §1

[15] = tested on: maize; assay: Pre-emergence test/greenhouse; details: Zea mays, 504 h, greenhouse, application rate 15 gai/ha, rated after three weeks, 0%=no effect, 100%=total destruction, read-out: degree of damage to the plants, maize
Procedure, shortened: as §1

[16] = tested on: Bromus; assay: Pre-emergence test/greenhouse; details: greenhouse, application rate 15 gai/ha, rated after three weeks, 0%=no effect, 100%=total destruction
Procedure, shortened: as §1

[17] = tested on: Alopecurus; assay: Post-emergence test/greenhouse; details: greenhouse, application rate 15 gai/ha, rated after three weeks, 0%=no effect, 100%=total destruction
Procedure, shortened: (§2)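 Post-emergence greenhouse spray. Formulation: 1 pt cpd, 5 pts acetone, 1 pt alkylaryl polyglycol ether emulsifier, water dilution; spray volume 1000 l/ha; plants 5-15 cm. Rating at 3 wk, % damage vs untreated (0-100%).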

[18] = tested on: Datura; assay: Post-emergence test/greenhouse; details: greenhouse, application rate 15 gai/ha, rated after three weeks, 0%=no effect, 100%=total destruction
Procedure, shortened: as §2

[19] = tested on: Polygonum; assay: Post-emergence test/greenhouse; details: greenhouse, application rate 15 gai/ha, rated after three weeks, 0%=no effect, 100%=total destruction
Procedure, shortened: as §2

[20] = tested on: Digitaria; assay: Post-emergence test/greenhouse; details: greenhouse, application rate 15 gai/ha, rated after three weeks, 0%=no effect, 100%=total destruction
Procedure, shortened: as §2

[21] = tested on: Setaria; assay: Post-emergence test/greenhouse; details: greenhouse, application rate 15 gai/ha, rated after three weeks, 0%=no effect, 100%=total destruction
Procedure, shortened: as §2

[22] = tested on: Lolium; assay: Post-emergence test/greenhouse; details: greenhouse, application rate 15 gai/ha, rated after three weeks, 0%=no effect, 100%=total destruction
Procedure, shortened: as §2

[23] = tested on: Avena fatua; assay: Post-emergence test/greenhouse; details: greenhouse, application rate 15 gai/ha, rated after three weeks, 0%=no effect, 100%=total destruction
Procedure, shortened: as §2

[24] = tested on: Chenopodium; assay: Post-emergence test/greenhouse; details: greenhouse, application rate 15 gai/ha, rated after three weeks, 0%=no effect, 100%=total destruction
Procedure, shortened: as §2

[25] = tested on: wheat; assay: Post-emergence test/greenhouse; details: greenhouse, application rate 15 gai/ha, rated after three weeks, 0%=no effect, 100%=total destruction
Procedure, shortened: as §2

[26] = tested on: Echinochloa; assay: Post-emergence test/greenhouse; details: greenhouse, application rate 15 gai/ha, rated after three weeks, 0%=no effect, 100%=total destruction
Procedure, shortened: as §2

[27] = tested on: rape; assay: Post-emergence test/greenhouse; details: greenhouse, application rate 15 gai/ha, rated after three weeks, 0%=no effect, 100%=total destruction
Procedure, shortened: as §2

[28] = tested on: Viola; assay: Post-emergence test/greenhouse; details: greenhouse, application rate 15 gai/ha, rated after three weeks, 0%=no effect, 100%=total destruction
Procedure, shortened: as §2

[29] = tested on: Xanthium; assay: Post-emergence test/greenhouse; details: greenhouse, application rate 15 gai/ha, rated after three weeks, 0%=no effect, 100%=total destruction
Procedure, shortened: as §2

[30] = tested on: maize; assay: Post-emergence test/greenhouse; details: greenhouse, application rate 15 gai/ha, rated after three weeks, 0%=no effect, 100%=total destruction
Procedure, shortened: as §2

[31] = tested on: Bromus; assay: Post-emergence test/greenhouse; details: greenhouse, application rate 15 gai/ha, rated after three weeks, 0%=no effect, 100%=total destruction
Procedure, shortened: as §2

CCCOc1nn(C(=O)NS(=O)(=O)c2c(C(=O)OC)csc2C)c(=O)n1C [(A), methyl 4-[[[(4,5-dihydro-4-methyl-5-oxo-3-n-propoxy-1H-1,2,4-triazol-1-yl)carbonyl]-amino]sulfonyl]-5-methyl-3-thiophenecarboxylate, reference compound]
degree of damage to the plants, Alopecurus [1]: 60% | degree of damage to the plants, Polygonum [2]: 0% | degree of damage to the plants, soybeans [3]: 0% | degree of damage to the plants, Digitaria [4]: 0% | degree of damage to the plants, Setaria [5]: 0% | pest or weed control at 15 g/ha [6]: 0% | degree of damage to the plants, Solanum [7]: 80% | degree of damage to the plants, Avena fatua [8]: 0% | degree of damage to the plants, Chenopodium [9]: 50% | plant injury at 15 g/ha [10]: 0% | degree of damage to the plants, Galium [11]: 10% | pest or weed control at 15 g/ha [12]: 80% | pest or weed control at 15 g/ha [13]: 0% | pest or weed control at 15 g/ha [14]: 50% | plant injury at 15 g/ha [15]: 0% | degree of damage to the plants, Bromus [16]: 60% | degree of damage to the plants, Alopecurus [17]: 70% | degree of damage to the plants, Datura [18]: 50% | degree of damage to the plants, Polygonum [19]: 50% | degree of damage to the plants, Digitaria [20]: 10% | degree of damage to the plants, Setaria [21]: 30% | degree of damage to the plants, Lolium [22]: 30% | degree of damage to the plants, Avena fatua [23]: 30% | degree of damage to the plants, Chenopodium [24]: 80% | degree of damage to the plants, wheat [25]: 0% | degree of damage to the plants, Echinochloa [26]: 60% | degree of damage to the plants, rape [27]: 95% | degree of damage to the plants, Viola [28]: 30% | degree of damage to the plants, Xanthium [29]: 70% | degree of damage to the plants, maize [30]: 30% | degree of damage to the plants, Bromus [31]: 50%
